# Patent publication US8552049B2, “Pyrazolecarboxamide derivatives and their use as microbiocides” (Syngenta Corp Protection, LLC, priority 2010, dated 2013)
# Experiments:
# [1] = tested on: Botrytis cinerea; experiment: Action against Botrytis cinerea - fungal growth assay; assay type: cell-based; details: 0.002% active ingredient, PDB nutrient broth, 24° C., photometrically after 3-4 days
# Protocol: (§1) Action Against Botrytis cinerea—Fungal Growth Assay Conidia of the fungus from cryogenic storage was directly mixed into nutrient broth (PDB potato dextrose broth). After placing a (DMSO) solution of the test compounds (0.002% active ingredient) into a microtiter plate (96-well format) the nutrient broth containing the fungal spores was added. The test plates were incubated at 24° C. and the inhibition of growth was measured photometrically after 3-4 days. The activity of a compound was expressed as fungal growth inhibition (0=no growth inhibition, ratings of 80% to 99% mean good to very good inhibition, 100%=complete inhibition). Compounds 1.003 and 1.004 show very good activity in this test (≧80% inhibition).
# [2] = tested on: Monographella nivalis; experiment: Action against Monographella nivalis (snow mould) - fungal growth assay; assay type: cell-based; details: 0.002% active ingredient, PDB nutrient broth, 24° C., photometrically after 72 hrs
# Protocol: Action Against Monographella nivalis (Anamorph: Fusarium nivale, Microdochium nivale; Snow Mould)—Fungal Growth Assay Conidia of the fungus from cryogenic storage were directly mixed into nutrient broth (PDB potato dextrose broth). After placing a DMSO-solution of the test compounds (0.002% active ingredient) into a microtiter plate (96-well format) the nutrient broth containing the fungal spores was added. The test plates were incubated at 24° C. and the inhibition of growth was measured photometrically after 72 hrs (0=no growth inhibition, ratings of 80% to 99% mean good to very good inhibition, 100%=complete inhibition).
# [3] = tested on: Erysiphe graminis f.sp. tritici; experiment: Action against Erysiphe graminis f.sp. tritici (wheat powdery mildew), wheat leaf segments; assay type: in vivo; details: Blumeria graminis, foliar, 168 h; wheat leaf segments sprayed with 0.02% active ingredient, assessed 7 days after inoculation; read-out: preventive fungicidal activity (inhibition)
# Protocol: (§2) Action Against Erysiphe graminis f.sp. tritici (Wheat Powdery Mildew) Wheat leaf segments were placed on agar in multiwell plates (24-well format) and sprayed with test solutions (0.02% active ingredient). After drying, the leaf disks were inoculated with a spore suspension of the fungus. After appropriate incubation the activity of a compound was assessed 7 days after inoculation as preventive fungicidal activity.
# [4] = tested on: Septoria tritici; experiment: Action against Septoria tritici - fungal growth assay; assay type: cell-based; details: Zymoseptoria tritici; 0.002% active ingredient, PDB nutrient broth, 24° C., photometrically after 72 hrs
# Protocol: as §1, with “Against Septoria tritici—Fungal” for “Against Botrytis cinerea—Fungal”, “storage were” for “storage was”, “was determined” for “was measured”, “after 72 hrs.” for “after 3-4 days.”, “inhibition).” for “inhibition). Compounds 1.003 and 1.004 show very good activity in this test (≧80% inhibition).”
# [5] = tested on: Puccinia recondita; experiment: Protective action against Puccinia recondita (brown rust) on wheat leaf segments; assay type: in vivo; details: foliar, 192 h, wheat leaf segments sprayed with 0.02% active ingredient, assessed 8 days after inoculation, read-out: preventive fungicidal activity (inhibition)
# Protocol: as §2, with “Protective Action” for “Action”, “Puccinia recondita (Brown Rust) on Wheat” for “Erysiphe graminis f.sp. tritici (Wheat Powdery Mildew)”, “8” for “7”
# [6] = tested on: Mycosphaerella arachidis; experiment: Action against Mycosphaerella arachidis (early leaf spot of groundnut) - fungal growth assay; assay type: cell-based; details: 0.002% active ingredient, PDB nutrient broth, 24° C., photometrically after 6-7 days
# Protocol: as §1, with “Against Mycosphaerella arachidis (Early Leaf Spot of Groundnut; Cercospora arachidicola [Anamorph])—Fungal” for “Against Botrytis cinerea—Fungal”, “storage were” for “storage was”, “after 6-7” for “after 3-4”
# [7] = tested on: Puccinia recondita; experiment: Curative action against Puccinia recondita (brown rust) on wheat leaf segments; assay type: in vivo; details: foliar, wheat leaf segments sprayed with 0.02% active ingredient one day after inoculation, assessed 8 days after inoculation, read-out: curative fungicidal activity (inhibition)
# Protocol: Curative Action Against Puccinia recondita (Brown Rust) on Wheat Wheat leaf segments were placed on agar in multiwell plates (24-well format) and inoculated with a spore suspension of the fungus. One day after inoculation the leaf segments were sprayed with test solutions (0.02% active ingredient). After appropriate incubation the activity of a compound was assessed 8 days after inoculation as curative fungicidal activity.
# [8] = tested on: Pyrenophora teres; experiment: Action against Pyrenophora teres (net blotch) on barley leaf segments; assay type: in vivo; details: foliar, 96 h, barley leaf segments sprayed with 0.02% active ingredient, assessed 4 days after inoculation, read-out: preventive fungicidal activity (inhibition)
# Protocol: as §2, with “Pyrenophora teres (Net Blotch) on Barley Barley” for “Erysiphe graminis f.sp. tritici (Wheat Powdery Mildew) Wheat”, “4” for “7”, “activity. Compounds 1.003 and 1.004 show very good activity in this test (≧80% inhibition).” for “activity.”
SMILES,melting point,inhibition at 0.002 % strength [1],inhibition at 0.002 % strength [2],inhibition at 0.02 % strength [3],inhibition at 0.002 % strength [4],inhibition at 0.02 % strength [5],inhibition at 0.002 % strength [6],inhibition at 0.02 % strength [7],inhibition at 0.02 % strength [8]
"CON(C(=O)c1cn(C)nc1C(F)(F)F)C(CF)Cc1c(Cl)cc(Cl)cc1Cl (stereo not drawn) [Compound 3.004, 1-methyl-3-trifluoromethyl-1H-pyrazole-4-carboxylic acid [1-fluoromethyl-2-(2,4,6-trichlorophenyl)-ethyl]-methoxy-amide]",131 to 133 °C,,,,,,,,
"CON(C(=O)c1cn(C)nc1C(F)F)C(CF)Cc1ccc(Cl)cc1Cl (stereo not drawn) [Compound 1.003, 3-difluoromethyl-1-methyl-1H-pyrazole-4-carboxylic acid [2-(2,4-dichloro-phenyl)-1-fluoromethyl-ethyl]-methoxy-amide]",,≥ 80%,≥ 80%,≥ 80%,≥ 80%,≥ 80%,≥ 80%,≥ 80%,≥ 80%
"CON(C(=O)c1cn(C)nc1C(F)F)C(CF)Cc1c(Cl)cc(Cl)cc1Cl (stereo not drawn) [Compound 1.004, 3-difluoromethyl-1-methyl-1H-pyrazole-4-carboxylic acid [1-fluoromethyl-2-(2,4,6-trichlorophenyl)-ethyl]-methoxy-amide]",117 to 118 °C,≥ 80%,≥ 80%,≥ 80%,≥ 80%,≥ 80%,≥ 80%,≥ 80%,≥ 80%
